Test results as given in PMC9219824, “Antiplasmodial Cyclodecapeptides from Tyrothricin Share a Target with Chloroquine” (Antibiotics, 2022).
Where two headings read alike, the source gives them in different places. Square brackets hold non-standard residues; d marks the D form. Peptide text beside a SMILES is read from it. Orn = NCCC[C@H](N)C(=O)O

Legend:
CQI P. falciparum D10 [1] = assay: microbe, parasite or virus in culture; format: cell-based, Plasmodium falciparum; details: for IC50: 48 h, Malstat, ± SEM; for Selectivity Index IC50D10/IC50 (COS cells): second value of cell
Protocol: The antimalarial assays were carried out according to the method of Nkhoma et al.. Once the cultures reached a parasitemia of 5–15%, they were synchronized four days prior to the day of the assay as described above which allowed the cultures to recover from the stress caused by the D-sorbitol. On the day of the assay, the parasitemia was determined following observation by light microscopy after Giemsa staining of a thin blood smear from the culture. The cultures at young trophozoite stage were diluted to 2% parasitemia and 2% hematocrit by addition of fresh RPMI medium and uninfected erythrocytes. This culture suspension was distributed in 96-well culture plates at 90 µL/well. The peptides and CQ diluted in culture medium lacking albumax II were added to the cultures in triplicate at 10 µL/well to give a total volume of 100 µL/well. Peptide solvent and medium (10 µL/well) was used as sterility control and in growth control and 10 μL 1.0 mM GS was used as positive control. Assays were carried out in at least three biological repeats each consisting of three technical repeats to ascertain reproducibility.
For the activity determination against parasites, plates were incubated at 37 °C for 48 h under an atmosphere of 3% CO2, 4% O2 and 93% N2. The culture suspension was frozen away at −20 °C until determination of the residual lactate dehydrogenase activity of the parasites by the Malstat assay, as adapted from Gomez et al..
For the Malstat assay, the plates were transferred to −80 °C for 1 h following overnight storage at −20 °C to ensure that all the suspensions in each well of the 96-well plate were frozen. The plates were then thawed at room temperature. The Malstat reagent consisted of 200 μL Triton X-100, 2 g L-lactic acid (substrate), 0.66 g Tris-HCl buffer and 0.011 g of 3-acetylpyridine adenine dinucleotide (APAD) (coenzyme for parasite lactate dehydrogenase) in 100 mL analytical quality water set to a pH of 9.0 [93]. The lactate dehydrogenase reaction was initiated by addition of a second solution, NBT/PES solution composed of 1.96 mM nitro blue tetrazolium (NBT) and 0.24 mM phenazine ethosulfate (PES) which was always protected from light. A 15 µL aliquot of the thawed and properly mixed suspension from the assay plates was added to 100 µL of the Malstat reagent, followed by addition of 25 µL of the NBT/PES solution. The reaction mixtures were then incubated at room temperature in the dark for 30 min followed by spectrophotometric measurement of the absorbance of the reduced APAD at 620 nm using a Model 680 Microplate reader from BioRad.
The data obtained from spectrophotometric measurement of the plates following the lactate dehydrogenase (Malstat) assay were converted to percentage growth inhibition using the data analysis method described by Rautenbach et al.. The background was obtained from control wells in which the parasites were killed with 100 µM GS while total growth was from the wells that were not submitted to peptides. The background for the hemolysis evaluation was from wells in which the uninfected erythrocytes were lysed using 100 µM GS while growth control was from the wells with uninfected erythrocytes that received no peptides. The percentage COS-1 cell death (CellTiter Blue™ assay) was similarly calculated from absorbance values. All the dose–response assay data were evaluated using GraphPad Prism 4.03 (GraphPad Software, San Diego, CA, USA) followed by non-linear regression and sigmoidal curves were fitted (having variable slope and a constant difference of 100 between the top and bottom plateau). Following calculation of the 50% P. falciparum inhibitory concentration (IC50), 50% hemolytic concentration (HC50) and 50% lethal concentration (LC50) for COS-1 cells.

CQI P. falciparum D10 [2] = details: for nature of CQ-peptide interaction: at the lowest CQ ratio, D10
Protocol: In order to determine the nature of Trc-CQ interaction, IC50 values were derived from dose–response curves of fixed ratios of Trc and CQ for fractional inhibition concentration (FIC) determination according to an adaptation of the methods by Chawira and Warhust and Fivelman et al..
CQ at […] (2.0 µM) and 500.0 μM peptide were used to prepare doubling and quadrupling dilution ranges, respectively in supplemented RPMI-1640 culture medium used for culturing the P. falciparum, but lacking albumax II. These were then mixed in an chequerboard fashion to determine the 1:0; 0:1 1;1, 1:2; 1:5 and 1:10 ratios of CQ:peptide for combined IC50s. The CQ, peptide or drug:peptide combination (10 μL) was added to 90 μL of the cell suspensions, incubated for 48 h at 37 °C under an atmosphere of 3% CO2, 4% O2 and 93% N2 and analyzed for growth inhibition as previously described using the Malstat assay. The IC50 values and standard error of the mean for the various CQ-peptide combinations were determined from the dose–response curves plotted and analyzed using GraphPad Prism® 4.03 (GraphPad Software, San Diego, CA, USA). A minimum of three technical repeats and three biological repeats were carried out for each combination experiment.
Two fractional inhibition concentration (FIC) values were calculated for each of the five CQ-peptide combination ratios, one for CQ and the other for the peptide according to Equations (1) and (2) below from Bell:FICCQ = IC50([CQ] in combination)/IC50CQ ([CQ] alone)(1) FICPeptide = IC50 ([Peptide] in combination)/IC50Peptide ([Peptide] alone)(2)
The FIC values were used to compute the FIC index which is the sum of FICs of CQ and each peptide using Equation (3) below:FIC index = FICCQ + FICpeptide(3)
The magnitude of the FICI determined the nature of the CQ-peptide interaction as being either synergistic (FICI < 1.0), antagonistic (FICI > 1.0) or additive (FICI = 1.0) 64–66. […] The shape of the isobolograms also provided an indication of the nature of the interactive effect of CQ and the peptides with a concave curve for synergy, a linear line for an additive to non-interactive effect or convex curve for antagonism with deviation of the curves from the additivity line indicating the strength of the interactive effect.

[3] = CQ:peptide ratio 1:2 at IC50, D10
[4] = CQ:peptide ratio 1:5 at IC50, D10
[5] = CQ:peptide ratio 1:10 at IC50, D10
[6] = CQ:peptide ratio 1:1 at IC50, D10

Row | Compound | IC50 (CQI P. falciparum D10 [1]) [nM] | increase in activity towards the CQI D10 strain (CQI P. falciparum D10 [1]; compared with 3D7) | Selectivity Index IC50D10/IC50 (COS cells) (CQI P. falciparum D10 [1]) | CQ FIC (CQI P. falciparum D10 [2]; [3]) | CQ:Peptide FIC Index (CQI P. falciparum D10 [2]; [3]) | Peptide FIC (CQI P. falciparum D10 [2]; [3]) | CQ FIC (CQI P. falciparum D10 [2]; [4]) | CQ:Peptide FIC Index (CQI P. falciparum D10 [2]; [4]) | Peptide FIC (CQI P. falciparum D10 [2]; [4]) | CQ FIC (CQI P. falciparum D10 [2]; [5]) | CQ:Peptide FIC Index (CQI P. falciparum D10 [2]; [5]) | Peptide FIC (CQI P. falciparum D10 [2]; [5]) | nature of CQ-peptide interaction (CQI P. falciparum D10 [2]) | CQ FIC (CQI P. falciparum D10 [2]; [6]) | CQ:Peptide FIC Index (CQI P. falciparum D10 [2]; [6]) | Peptide FIC (CQI P. falciparum D10 [2]; [6]) | CQ:Peptide FIC Index (CQI P. falciparum D10 [2]; CQ:peptide ratio 1:1 at IC50, D10, listed as Tyrocidine A)
1 | CC(C)C[C@@H]1NC(=O)[C@H](CCCN)NC(=O)[C@H](C(C)C)NC(=O)[C@H](Cc2c[nH]c3ccccc23)NC(=O)[C@H](CCC(N)=O)NC(=O)[C@H](CC(N)=O)NC(=O)[C@@H](Cc2c[nH]c3ccccc23)NC(=O)[C@H](Cc2c[nH]c3ccccc23)NC(=O)[C@@H]2CCCN2C(=O)[C@@H](Cc2ccccc2)NC1=O [TpcC, tryptocidine C] (cyclo(L[dF]PW[dW]NQWV[Orn])) | 42 ± 17 | about a three-fold increase in activity | 238 | 0.36 ± 0.07 | 1.26 ± 0.36 | 0.90 ± 0.40 | 0.23 ± 0.08 | 1.47 ± 0.28 | 1.24 ± 0.26 | 0.08 ± 0.03 | 1.02 ± 0.17 | 0.93 ± 0.16 | additive activity | – | – | – | –
2 | CC(C)C[C@@H]1NC(=O)[C@H](CCCN)NC(=O)[C@H](C(C)C)NC(=O)[C@H](Cc2ccc(O)cc2)NC(=O)[C@H](CCC(N)=O)NC(=O)[C@H](CC(N)=O)NC(=O)[C@@H](Cc2ccccc2)NC(=O)[C@H](Cc2ccccc2)NC(=O)[C@@H]2CCCN2C(=O)[C@@H](Cc2ccccc2)NC1=O [TrcA, tyrocidine A] (cyclo(V[Orn]L[dF]PF[dF]NQY)) | – | – | 51 | 0.66 ± 0.02 | 1.60 ± 0.20 | 0.95 ± 0.18 | – | – | – | 0.13 ± 0.10 | 1.35 ± 0.37 | 1.21 ± 0.29 | – | 1.77 ± 0.29 | > 3 | 1.99 ± 0.36 | 3.76 ± 0.65
3 | CC(C)C[C@@H]1NC(=O)[C@H](CCCN)NC(=O)[C@H](C(C)C)NC(=O)[C@H](Cc2ccccc2)NC(=O)[C@H](CCC(N)=O)NC(=O)[C@H](CC(N)=O)NC(=O)[C@@H](Cc2ccccc2)NC(=O)[C@H](Cc2ccccc2)NC(=O)[C@@H]2CCCN2C(=O)[C@@H](Cc2ccccc2)NC1=O [PhcA, phenycidine A] (cyclo(FV[Orn]L[dF]PF[dF]NQ)) | 52 ± 17 | – | 154 | – | – | – | – | – | – | – | – | – | synergistic action | – | – | – | –
